# Entries after “also recorded” stand apart in the source; their conditions may differ.
# How the values were obtained:
# Format in all cases: cell-based, human
# Settings in all cases: CHO cells
# hKV1.6 = test system: hKV1.6
# From the text: (§1) We, therefore, aimed at testing the pharmacological activity of sCm39 on a battery of various potassium and sodium ion channels. Among the tested channels were six members of human voltage-gated K^+ (hKV) channels from Shaker family, hKV1.1-hKV1.6 (Figure 3A–F) and three members of Ca^2+-activated potassium channel; hKCa2.2 (SK2, Figure 3I), the small-conductance Ca^2+-activated channel; hKCa3.1 (IKCa1, SK4. Figure 3J), the intermediate-conductance Ca^2+-activated channel expressed in T lymphocytes; and mKCa1.1 (BK, Slo1, MaxiK, Figure 3H), the large-conductance voltage- and Ca^2+-activated channel of mice. In addition, we also screened the effect of Cm39 on hKV11.1 (hERG1, Figure 3G), a voltage-gated cardiac K^+ channel, and two human voltage-gated sodium (hNaV) channels, hNaV1.4 (Figure 3K) and hNaV1.5 (Figure 3L), expressed in skeletal and cardiac muscles, respectively. These ion channels were heterologously expressed in the CHO or HEK cell lines except for KV1.3. Human peripheral T lymphocytes. They were stimulated with Phytohemagglutinin A (PHA) to increase the KV1.3 channel expression, and Ca^2+-free intracellular solution was used to avoid KCa3.1 channel activation. Appropriate depolarization protocols were used to record ionic currents in voltage-clamped cells (see Figure 3 insets and Material and Methods for details). Freshly dissolved sCm39 in extracellular solution was applied at 1 µM concentration on the cell using a custom-built micro-perfusion system at ~200 µL/min flow rate.
# (§2) Chinese hamster ovary (CHO) cells (gift from Yosef Yarden, Weizmann Institute of Science, Rehovot, Israel) were maintained by culturing in Dulbecco’s modified Eagle medium (DMEM, Gibco) supplemented with 2 mM L-glutamine, 10% FBS, 100 µg/mL streptomycin and 100 U/mL penicillin-g (Sigma-Aldrich) at a density of 0. 5−1×10^6 cells per mL in a humidified incubator at 37 °C and 5% CO2. Cells were passaged 3 times in a week following a 2–5 min incubation in 0.05% trypsin-EDTA solution at 37 °C. Cultures were used up to passage number 20. PCR-based tests were routinely used to detect mycoplasma infection, only mycoplasma-free cultures were used for experiments.
# (§3) Those plasmids which lack a fluorescent tag were co-transfected with a plasmid encoding GFP. Transfections were performed at a GFP:channel DNA molar ratio of 1:10 using the Lipofectamine 2000 kit (Invitrogen) according to the manufacturer’s protocol. […] Generally, currents were recorded 24 to 48 h post transfection.
# (§4) For the measurement of KV1.x, mKCa1.1 and NaV1.x currents the extracellular solution was composed of (in mM) 145 NaCl, 5 KCl, 2.5 CaCl2, 1 MgCl2, 10 HEPES and 5.5 glucose, pH 7.35. In the HK-150 and Na^+-free bath solution bath all Na^+ was substituted by K^+ or Choline-Cl, respectively, other ingredients remained unchanged. In the various TEA^+-containing solutions, Na^+ was substituted by tetraethylammonium-Cl in equimolar concentration (Figure 3). The bath solution for KCa2.2 and KCa3.1 consisted of (in mM) 145 L-Aspartic Na^+ salt, 5 KCl, 2.5 CaCl2, 1 MgCl2, 5.5 glucose and 10 HEPES, pH 7.4 and for KV11.1 (in mM) 140 Choline-Cl, 5 KCl, 2 MgCl2, 2 CaCl2, 10 HEPES, 20 glucose and 0.1 CdCl2, pH 7.35. The osmolarity of bath solutions was ranging between 302 to 308 mOsm/L. A total of 0.1 mg/mL bovine serum albumin (BSA, Sigma-Aldrich, Budapest, Hungary) was added to all the bath solutions before the patch-clamp assay to avoid toxin adsorption to the plastic surfaces of the perfusion system. Internal or pipette solution for recording KV1.x and mKCa1.1 currents consisted of (in mM) 140 KF, 2 MgCl2, 1 CaCl2, 11 EGTA and 10 HEPES, pH 7.22.
# hKV1.1 = test system: hKV1.1
# From the text: as §1, §2, §3, §4
# hKV1.5 = assay: Whole-cell patch-clamp, block of KV1.5 current
# From the text: as §1, with “Appropriate depolarization protocols were used to record ionic currents in voltage-clamped cells (see Figure 3 insets and Material and Methods for details). Freshly dissolved sCm39 in extracellular solution was applied at 1 µM concentration on the cell using a custom-built micro-perfusion system at ~200 µL/min flow rate.” left out
# Those plasmids which lack a fluorescent tag were co-transfected with a plasmid encoding GFP. […] Generally, currents were recorded 24 to 48 h post transfection. […]
smiles,measurement,setting,value
CC[C@H](C)[C@@H]1NC(=O)[C@H](C)NC(=O)[C@H](C)NC(=O)[C@H](CCCCN)NC(=O)[C@@H]2CSSC[C@@H](C(=O)N[C@@H](Cc3ccc(O)cc3)C(=O)N[C@@H](Cc3ccc(O)cc3)C(=O)O)NC(=O)[C@H](CCCCN)NC(=O)[C@@H]3CSSC[C@H](NC(=O)[C@H](CCC(=O)O)NC(=O)[C@H](CO)NC(=O)[C@H](CO)NC(=O)[C@H](CO)NC(=O)[C@H](CCCCN)NC(=O)[C@@H](NC(=O)[C@H](CCCCN)NC(=O)[C@H](Cc4c[nH]cn4)NC(=O)[C@H](CC(N)=O)NC(=O)[C@@H](NC(=O)[C@H](Cc4ccccc4)NC(=O)[C@@H](N)[C@@H](C)O)[C@@H](C)CC)CSSC[C@H](NC(=O)[C@H](CCCCN)NC(=O)CNC(=O)[C@H](CO)NC(=O)[C@H](C)NC(=O)[C@H](CCCNC(=N)N)NC(=O)CNC1=O)C(=O)N[C@@H]([C@@H](C)CC)C(=O)N[C@@H](CC(N)=O)C(=O)N[C@@H](CO)C(=O)N[C@@H]([C@@H](C)O)C(=O)N3)C(=O)N[C@@H](CC(C)C)C(=O)N1CCC[C@H]1C(=O)N[C@@H](C)C(=O)N2 [Cm39],inhibition (in words),hKV1.6; 1 μM,does not inhibit; also recorded: did not show any effect
same,decrease in current,"hKV1.6; 1 µM, 3−5 min, n = 3−5",< 3%
same,inhibition (in words),hKV1.1; 1 μM,does not inhibit; also recorded: did not show any effect
same,decrease in current,"hKV1.1; 1 µM, 3−5 min, n = 3−5",< 3%
same,inhibition (in words),hKV1.5; 1 μM,does not inhibit; also recorded: did not show any effect
same,decrease in current,"hKV1.5; 1 µM, 3−5 min, n = 3−5",< 3%
